In US20180030093A1, “SELF-ASSEMBLING ULTRASHORT ALIPHATIC CYCLIC PEPTIDES FOR BIOMEDICAL APPLICATIONS” (Agency for Science, Technology and Research, priority 2015, published 2018):
“Also recorded” adds a separate entry of the source. Blank lines part the entries; values can stand above or below the compound they belong to. Non-standard residues stand in square brackets, D forms with d. Residues, ends and D or L forms follow the SMILES beside them.

How the values were obtained:
[1] = Solubility of the cyclic peptides in MilliQ water
Experimental: (§1) In order to determine the minimum gelation concentration in water, the cyclic peptides were attempted to be dissolved in MilliQ water.
(§2) In order to introduce a charged amino acid residue cLK6 was synthesized and its ability to form hydrogels was investigated. For this purpose cLK6 was dissolved at a concentration of 10 mg/mL in water.

[2] = Gelation / self-assembly in water; format: physicochemical
Experimental: as §1, §2

[3] = Stimuli response of gelation to salt (1× PBS); format: physicochemical; conditions: 5 mg/mL in 1× PBS, after vortexing
Experimental: Our previous studies on the parent peptide Ac-LIVAGK-NH2 have shown stimuli responsive behaviour to salt, which allows to reduce the minimum gelation concentration by 50%. […] For this purpose, cLK6 was dissolved in 9 parts of water and afterwards 1 part of 10× PBS solution was added.

[4] = stimuli responsive behaviour to salt; applicant's previous studies; cited from earlier work

gel formation ([2]; 5 mg/mL in water, prepared in the same way, overnight): clear hydrogel was formed
gel formation ([2]; 10 mg/mL in water, heated at 60° C., then standing at room temperature): opaque sol gel was formed
gel formation ([2]; peptide concentration further reduced below 5 mg/mL in water): no hydrogel formation
Compound: CC[C@H](C)[C@@H]1NC(=O)[C@@H](CC(C)C)NC(=O)[C@H](CCCCN)NC(=O)CNC(=O)[C@H](C)NC(=O)[C@@H](C(C)C)NC1=O [cLK6, cLIVAGK] (cyclo([dL]I[dV]AGK))
solubility in water at 10 mg/mL ([1]; 10 mg/mL in water): full solubility was only achieved, when the peptide solution was heated at 60 °C for about 2 h
gel formation in salt solution [3]: only peptide aggregation, resulting in precipitation

Compound: CC[C@H](C)[C@@H]1NC(=O)[C@@H](CC(C)C)NC(=O)[C@H](CO)NC(=O)CNC(=O)[C@H](C)NC(=O)[C@@H](C(C)C)NC1=O [cLS6, cLIVAGS] (cyclo([dL]I[dV]AGS))
solubility in water ([1]; MilliQ water): low solubility; also recorded: limited water solubility
self-assembly in water ([2]; dissolved in hexafluoroisopropanol (HFIP) and dropped slowly into water): gelatinous “precipitate” is formed; also recorded: still displays self-assembling properties

Compound: Ac-LIVAGK-NH2 [linear parent ultrashort peptide of cLK6, previously reported by the inventors]
reduction of the minimum gelation concentration by salt [4]: 50%
